{"source": "patent US20120010148A1", "about": "“COMBINATION THERAPIES USING NAP” (ALLON THERAPEUTICS INC., priority 2008, published 2012)", "key": {"[1]": {"system": "TNF-α, interleukin-16 (IL-16), and IL-12 in macrophages", "conditions": "cited from earlier work"}, "[2]": {"system": "model of fetal alcohol syndrome", "conditions": "in vivo, ip; cited from earlier work"}, "STOP+/+ mice": {"system": "STOP+/+ mice", "experiment": "Behavioral tests in control STOP+/+ mice", "assay_type": "in vivo, mouse", "description": "For the initial comparisons of STOP+/− mice to STOP+/+ mice (littermates), each experimental group included 10-12 mice, 4-12 month-old; mean age 6 months, there were no highly significant differences between the tested ages in terms of the behavioral outcome). The STOP+/+ and STOP+/− male mice received daily (5 days a week) NAP nasal application vehicle as follows below for the duration of 7-10 weeks.\nThe NAP vehicle solution (termed DD), included the following ingredients (per milliliter): 7.5 mg of NaCl, 1.7 mg of citric acid monohydrate, 3 mg of disodium phosphate dihydrate, and 0.2 mg of benzalkonium chloride solution (50%) (Alcalay R N et al., Neurosci Lett, 361(1-3): 128-131 (2004)). […]\nLocomotor activity was measured in 5 consecutive sessions, 3 minutes each and the mean path length in cm of each mouse in the 3 minute sessions per the entire 15 minute period of observation in open field (80 cm diameter) was determined. […]\nThe test is based on visual discrimination between two different objects in an arena of 30 cm×40 cm. […] One hour after the daily intranasal NAP treatment, or clozapine injection, each male mouse was exposed to two identical objects for 5 minutes and the time spent sniffing/touching each object was measured (first daily session). […] The data was analyzed using two different methods. […]"}, "STOP+/− mice [3]": {"system": "STOP+/− mice", "experiment": "Object recognition and discrimination test", "assay_type": "in vivo, mouse", "method": "The NAP vehicle solution (termed DD), included the following ingredients (per milliliter): 7.5 mg of NaCl, 1.7 mg of citric acid monohydrate, 3 mg of disodium phosphate dihydrate, and 0.2 mg of benzalkonium chloride solution (50%) (Alcalay R N et al., Neurosci Lett, 361(1-3): 128-131 (2004)). NAP or vehicle solution (DD) was administered to mice hand-held in a semisupine position with nostrils facing the investigator. A pipette tip was used to administer 2.5 μl/nostril. The mouse was hand-held until the solution was totally absorbed (10 s). […]\nThe test is based on visual discrimination between two different objects in an arena of 30 cm×40 cm. […] One hour after the daily intranasal NAP treatment, or clozapine injection, each male mouse was exposed to two identical objects for 5 minutes and the time spent sniffing/touching each object was measured (first daily session). Three hours later, the mice were exposed to one familiar and one novel object for 3 minutes and the time spent sniffing/touching each object was measured again (second session, measuring visual memory). The data was analyzed using two different methods. The first method measured the time spent exploring an object, novel or familiar, and compared the two. The second method evaluated the discrimination capacity of the mice between the novel object and the familiar object using the following formula. […]"}, "ischemic injury": {"system": "ischemic injury", "conditions": "after ischemic injury; cited from earlier work"}, "[4]": {"system": "peripheral blood mononuclear cells (PBMCs)", "conditions": "cited from earlier work"}, "schizophrenia patients": {"system": "schizophrenia patients", "conditions": "human clinical trial; cited from earlier work"}, "[5]": {"system": "ADNP-deficient mice, triple transgenic mouse model of AD, model of frontotemporal dementia", "conditions": "in vivo; cited from earlier work"}, "STOP+/− mice [6]": {"system": "STOP+/− mice", "experiment": "Social recognition test", "assay_type": "in vivo", "conditions": "8-month-old STOP+/− mice; NAP 0.5 microgram/mouse/day, clozapine 3 mg/kg/day, FIG. 16", "method": "In the social recognition test, 8-month-old mice (STOP+/−) were habituated for 20 minutes in a cage and then exposed to a new juvenile mouse (1.5-month old) for one minute—followed by a 30-minute interval and another 1 minute exposure four times (familiarizing the test subject with the juvenile mouse). The fifth exposure session included a novel juvenile mouse. Time spent interacting with the juvenile mouse was recorded."}, "normal aging rats": {"system": "normal aging rats", "conditions": "intranasal administration; cited from earlier work"}, "[7]": {"system": "animal models simulating parts of the Alzheimer's disease pathology", "conditions": "in vivo; cited from earlier work"}}, "note": "“Also recorded” adds a separate entry of the source."}
{"smiles": "CC[C@H](C)[C@H](NC(=O)[C@H](CO)NC(=O)[C@@H](NC(=O)[C@@H]1CCCN1C(=O)[C@H](C)NC(=O)[C@@H](N)CC(N)=O)C(C)C)C(=O)N1CCC[C@H]1C(=O)N[C@@H](CCC(N)=O)C(=O)O", "note": "[NAP]", "values": [{"measurement": "key inflammatory cytokines TNF-α, IL-16 and IL-12", "setting": "[1]", "result": "downregulates"}, {"measurement": "fetal death after intraperitoneal injection of alcohol", "setting": "[2]", "result": "inhibited"}, {"measurement": "open field locomotor activity in control mice", "setting": "STOP+/+ mice; STOP+/+ mice, NAP intranasal 0.5 μg/mouse/day", "result": "trend; also recorded: non-significant effect"}, {"measurement": "cognitive performance of control mice", "setting": "STOP+/+ mice; control mice treated with NAP", "result": "did not show improvement in their cognitive performance"}, {"measurement": "object recognition / discrimination of novel object", "setting": "STOP+/− mice [3]; Example 3, STOP+/− male mice, 3 h after first session, NAP intranasal 0.5 μg/mouse/day or clozapine 10 mg/kg IP, FIG. 9", "result": "ameliorated completely the cognitive impairment; also recorded: significantly beneficial"}, {"measurement": "object recognition, discrimination capacity D2 (memory scores)", "setting": "STOP+/− mice [3]; Example 4, STOP+/− mice, NAP 0.5 microgram/mouse/day, clozapine 3 mg/kg/day, versus pooled controls, FIG. 12", "result": "effective to increase memory scores"}, {"measurement": "infarct volume and motor function deficits", "setting": "ischemic injury", "result": "reduced infarct volume and motor function deficits"}, {"measurement": "anti-CD3-/anti-CD28-stimulated proliferation", "setting": "[4]", "result": "suppressed"}, {"measurement": "expression of CD69, CD154 and IFN-γ", "setting": "[4]", "result": "decreased the expression"}, {"measurement": "activity in schizophrenia patients", "setting": "schizophrenia patients", "result": "shown activity"}, {"measurement": "tau hyperphosphorylation and cognitive functions", "setting": "[5]", "result": "reduces tau hyperphosphorylation and enhances cognitive functions"}, {"measurement": "social recognition behavior", "setting": "STOP+/− mice [6]", "result": "partially ameliorated"}, {"measurement": "performance in the Morris water maze", "setting": "normal aging rats", "result": "improved performance"}, {"measurement": "protection in Alzheimer's disease pathology models", "setting": "[7]", "result": "protective"}]}
